The source made the active and inactive calls. No cut-off for these calls is given here.
Assays:
[1] = target: Amyloid-beta precursor protein (Homo sapiens) (UniProt P05067); assay: Inhibition of HFIP-pretreated amyloid beta (1 to 42) (unknown origin) self aggregation at 50 uM measured every 10 mins for 72 hrs by Thioflavin T flourimetric assay relative to control
[2] = Anti-inflammatory activity in mouse SIM-A9 cells assessed as decrease in LPS-induced IL-6 production at 1 ug/ml preincubated for 1 hr followed by stimulation with LPS and measured after 23 hrs by ELISA assay; format: functional; parameters: scale not given: the % may be the effect or the level left; settings: dose 1 µg/ml; time 24 hrs
[3] = Anti-inflammatory activity in mouse SIM-A9 cells assessed as decrease in LPS-induced TNF-alpha production at 1 ug/ml preincubated for 1 hr followed by stimulation with LPS and measured after 23 hrs by ELISA assay; format: functional; parameters: scale not given: the % may be the effect or the level left; settings: dose 1 µg/ml; time 24 hrs
[4] = Cytotoxicity against mouse SIM-A9 cells assessed as non-toxic concentration measured after 24 hrs by MTT assay; format: functional
[5] = Permeability of compound at pH 7.4 measured after 6 hrs by PAMPA assay
[6] = Cytotoxicity against mouse SIM-A9 cells measured after 24 hrs by MTT assay; format: functional, cell-based; settings: SIM-A9, 24 h
[7] = system: SH-SY5Y; assay: Cytotoxicity against human SH-SY5Y cells measured after 24 hrs by MTT assay; format: functional, cell-based
[8] = target: T1, Amine oxidase [flavin-containing] B (Homo sapiens, UniProt P27338); assay: Inhibition of human MAO-B preincubated for 5 mins followed by addition of Kynuramine substrate and measured after 30 mins by plate reader method
T1 sequence (P27338 whole entry): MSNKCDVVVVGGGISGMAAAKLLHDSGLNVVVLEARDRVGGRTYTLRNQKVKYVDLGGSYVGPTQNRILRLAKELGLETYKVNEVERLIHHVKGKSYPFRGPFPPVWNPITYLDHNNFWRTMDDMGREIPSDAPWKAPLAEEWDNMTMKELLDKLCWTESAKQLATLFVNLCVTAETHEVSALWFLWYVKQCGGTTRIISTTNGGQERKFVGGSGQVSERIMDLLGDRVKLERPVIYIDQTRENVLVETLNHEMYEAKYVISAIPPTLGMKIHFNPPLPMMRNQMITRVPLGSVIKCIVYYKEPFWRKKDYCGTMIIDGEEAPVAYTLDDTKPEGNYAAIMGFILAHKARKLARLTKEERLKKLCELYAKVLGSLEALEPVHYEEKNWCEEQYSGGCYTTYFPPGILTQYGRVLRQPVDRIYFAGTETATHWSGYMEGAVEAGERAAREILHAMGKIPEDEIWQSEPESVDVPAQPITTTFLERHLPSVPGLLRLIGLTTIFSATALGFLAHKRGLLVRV

[9] = species: Homo sapiens; assay: Selectivity index, ratio of IC50 for human MAO-A to IC50 for human MAO-B using Kynuramine as substrate measured by plate reader method
[10] = target: T2, Amine oxidase [flavin-containing] A (Homo sapiens, UniProt P21397); assay: Inhibition of human MAO-A preincubated for 5 mins followed by addition of Kynuramine substrate and measured after 30 mins by plate reader method
T2 sequence (P21397 whole entry): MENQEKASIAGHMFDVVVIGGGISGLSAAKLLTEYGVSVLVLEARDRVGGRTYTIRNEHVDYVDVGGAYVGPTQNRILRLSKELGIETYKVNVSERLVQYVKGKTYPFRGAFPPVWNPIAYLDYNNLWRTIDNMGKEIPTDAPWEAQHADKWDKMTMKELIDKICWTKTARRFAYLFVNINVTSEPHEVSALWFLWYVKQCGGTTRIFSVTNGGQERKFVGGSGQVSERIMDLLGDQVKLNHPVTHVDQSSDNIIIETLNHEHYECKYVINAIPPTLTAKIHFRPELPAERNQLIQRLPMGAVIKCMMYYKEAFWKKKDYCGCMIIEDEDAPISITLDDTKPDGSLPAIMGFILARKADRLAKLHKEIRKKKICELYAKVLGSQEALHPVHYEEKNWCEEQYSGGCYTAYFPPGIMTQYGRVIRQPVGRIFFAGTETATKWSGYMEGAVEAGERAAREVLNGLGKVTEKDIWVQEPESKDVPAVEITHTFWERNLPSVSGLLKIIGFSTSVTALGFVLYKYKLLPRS

[11] = target: T1, Amine oxidase [flavin-containing] B; assay: Mixed inhibition of human MAO-B using Kynuramine as substrate measured upto 60 mins by plate reader method; settings: 1 h
[12] = Metal chelating activity assessed as compound-Cu2+ complex formation measured by EPR-spectroscopy; format: functional
[13] = target: T1, Amine oxidase [flavin-containing] B; assay: Competitive inhibition of human MAO-B assessed as increase of Km with constant Vmax using Kynuramine at 0.05 to 0.2 uM measured after 30 mins by plate reader method; settings: 0.5 h, dose 0.05-0.2 µM
[14] = Radical scavenging activity of compound measured after 15 mins by ABTS radical scavenging activity in relative to clioquinol; format: functional
[15] = Anti-inflammatory activity in mouse SIM-A9 cells assessed as decrease in LPS-induced IL-6 production at 2 uM preincubated for 1 hr followed by stimulation with LPS and measured after 23 hrs by ELISA assay; format: functional; parameters: scale not given: the % may be the effect or the level left; settings: time 24 hrs
[16] = Anti-inflammatory activity in mouse SIM-A9 cells assessed as decrease in LPS-induced IL-6 production at 4 uM preincubated for 1 hr followed by stimulation with LPS and measured after 23 hrs by ELISA assay; format: functional; parameters: scale not given: the % may be the effect or the level left; settings: time 24 hrs
[17] = Toxicity in human SH-SY5Y cells assessed by intracellular dehydrogenase activity at 100 uM measured after 24 hrs by WST-1 assay; format: cell-based; settings: read-out: Activity
[18] = Radical scavenging activity of compound in presence of Cu+2 measured after 15 mins by ABTS radical scavenging activity in relative to clioquinol; format: functional
[19] = Anti-inflammatory activity in mouse SIM-A9 cells assessed as decrease in LPS-induced IL-6 production at 8 uM preincubated for 1 hr followed by stimulation with LPS and measured after 23 hrs by ELISA assay; format: functional; parameters: scale not given: the % may be the effect or the level left; settings: time 24 hrs
[20] = Anti-inflammatory activity in mouse SIM-A9 cells assessed as decrease in LPS-induced TNF-alpha production at 2 uM preincubated for 1 hr followed by stimulation with LPS and measured after 23 hrs by ELISA assay; format: functional; parameters: scale not given: the % may be the effect or the level left; settings: time 24 hrs
[21] = Toxicity in human SH-SY5Y cells assessed as change in respiratory states by measuring ETS at 0.1 to 100 uM measured after 24 hrs by respirometer; format: cell-based; settings: dose 0.1-100 µM
[22] = Anti-inflammatory activity in mouse SIM-A9 cells assessed as decrease in LPS-induced TNF-alpha production at 8 uM preincubated for 1 hr followed by stimulation with LPS and measured after 23 hrs by ELISA assay; format: functional; parameters: scale not given: the % may be the effect or the level left; settings: time 24 hrs
[23] = Toxicity in human SH-SY5Y cells assessed as change in respiratory states by measuring ROUTINE at 0.1 to 100 uM measured after 24 hrs by respirometer; format: cell-based; settings: dose 0.1-100 µM
[24] = Toxicity in human SH-SY5Y cells assessed as change in respiratory states by measuring ROX at 0.1 to 100 uM measured after 24 hrs by respirometer; format: cell-based; settings: dose 0.1-100 µM
[25] = Toxicity in human SH-SY5Y cells assessed by glutathione depletion at 10 uM measured after 24 hrs by monochlorobimane based plate reader assay; format: cell-based
[26] = Anti-inflammatory activity in mouse SIM-A9 cells assessed as decrease in LPS-induced TNF-alpha production at 4 uM preincubated for 1 hr followed by stimulation with LPS and measured after 23 hrs by ELISA assay; format: functional; parameters: scale not given: the % may be the effect or the level left; settings: time 24 hrs
[27] = Toxicity in human SH-SY5Y cells assessed as change in respiratory states by measuring LEAK at 0.1 to 100 uM measured after 24 hrs by respirometer; format: cell-based; settings: dose 0.1-100 µM
[28] = Toxicity in human SH-SY5Y cells assessed by changes in mitochondrial membrane potential at 0.1 to 100 uM measured after 24 hrs by JC-1 probe based fluorescence reader assay; format: cell-based; settings: dose 0.1-100 µM
[29] = Toxicity in human SH-SY5Y cells assessed by intracellular dehydrogenase activity at 10 uM measured after 24 hrs by WST-1 assay; format: cell-based; settings: read-out: Activity
[30] = target: T1, Amine oxidase [flavin-containing] B; assay: Non-covalent inhibition of human MAO-B using Kynuramine as substrate measured upto 60 mins by plate reader method; settings: 1 h
[31] = target: T1, Amine oxidase [flavin-containing] B; assay: Mixed inhibition of human MAO-B assessed as increase of Km with decrease of Vmax using Kynuramine at 0.3 to 2 uM measured after 30 mins by plate reader method; settings: 0.5 h, dose 0.3-2 µM
[32] = target: T1, Amine oxidase [flavin-containing] B; assay: Reversible inhibition of human MAO-B using Kynuramine as substrate at pH 7 measured after 30 mins by plate reader method; settings: pH 7, 0.5 h

Sequence of Amyloid-beta precursor protein (Homo sapiens) (P05067 whole entry): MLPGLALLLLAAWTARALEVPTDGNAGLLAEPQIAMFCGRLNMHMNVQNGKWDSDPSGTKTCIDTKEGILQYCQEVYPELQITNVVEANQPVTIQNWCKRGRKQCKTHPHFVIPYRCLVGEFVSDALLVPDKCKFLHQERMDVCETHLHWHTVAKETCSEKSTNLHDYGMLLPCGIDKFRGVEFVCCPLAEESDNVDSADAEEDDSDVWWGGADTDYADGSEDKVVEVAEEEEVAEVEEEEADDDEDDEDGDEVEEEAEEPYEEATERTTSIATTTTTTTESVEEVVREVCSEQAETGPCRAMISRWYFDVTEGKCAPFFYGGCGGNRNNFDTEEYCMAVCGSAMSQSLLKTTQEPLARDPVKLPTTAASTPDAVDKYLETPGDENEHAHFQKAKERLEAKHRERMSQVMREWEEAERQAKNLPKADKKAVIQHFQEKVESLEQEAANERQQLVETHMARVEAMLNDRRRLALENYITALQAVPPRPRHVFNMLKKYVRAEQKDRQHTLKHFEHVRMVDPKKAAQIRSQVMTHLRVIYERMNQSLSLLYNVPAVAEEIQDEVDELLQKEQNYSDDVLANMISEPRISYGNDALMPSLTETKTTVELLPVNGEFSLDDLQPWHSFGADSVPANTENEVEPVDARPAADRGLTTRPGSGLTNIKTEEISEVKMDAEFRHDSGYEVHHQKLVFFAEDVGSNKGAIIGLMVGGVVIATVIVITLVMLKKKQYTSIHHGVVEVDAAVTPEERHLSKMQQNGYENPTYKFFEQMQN

Compound | inhibition [1] | Papp at 6 h [5] | IC50 [8] | Selectivity Index [9] | IC50 [10] | MNTD [4] | IC50 [6] | IC50 [7] | further results
C[C@H]1c2cccc(O)c2C(=O)C2=C(O)[C@]3(O)C(=O)C(C(N)=O)=C(O)[C@@H](N(C)C)[C@@H]3[C@@H](O)[C@@H]21 | 93.1% | – | – | – | – | – | – | – | –
C[C@@H]1C[C@H]2[C@@H]3CCC4=CC(=O)C=C[C@]4(C)[C@@]3(F)[C@@H](O)C[C@]2(C)[C@@]1(O)C(=O)CO [DEXAMETHASONE] | – | – | – | – | – | – | – | – | Activity [2]: 40%; Activity [3]: 60%
C#CCNC1=CC(=O)c2cccc(OC)c2C1=O | 15.5% | 18.8 ×10⁻⁶ cm/s | – | – | – | 8 µM | 116 µM | > 32 µM | –
CNC(=C[N+](=O)[O-])NCCSCc1ccc(CN(C)C)o1 [RANITIDINE] | – | 0.04 ×10⁻⁶ cm/s | – | – | – | – | – | – | –
C#CCNC1=CC(=O)c2cccc(OCc3ccccc3)c2C1=O | 17.5% | 25.5 ×10⁻⁶ cm/s | – | – | – | 8 µM | > 32 µM | > 64 µM | Activity [15]: 95%; Activity [16]: 74%; Activity [12]: Active; viability at 24 h, 100 µM [17]: 88%; Activity [18]: 10%; Activity [19]: 49%; Activity [20]: 76%; Activity [21]: Non-Toxic; Activity [22]: 46%; Activity [23]: Non-Toxic; Activity [24]: Non-Toxic; Activity [25]: 89%; Activity [26]: 74%; Activity [27]: Non-Toxic; Activity [28]: Non-Toxic; Activity [14]: 15%; viability at 24 h, 10 µM [29]: 89%
C#CCNC1=CC(=O)c2c(O)ccc(O)c2C1=O | 21.7% | 43.3 ×10⁻⁶ cm/s | – | – | – | 0.4 µM | 5.3 µM | 15 µM | –
C#CCNC1=CC(=O)c2cccc(OCC)c2C1=O | 11.2% | 18.5 ×10⁻⁶ cm/s | – | – | – | 32 µM | > 64 µM | > 64 µM | –

The next lines start with results.

inhibition [1] | Papp at 6 h [5] | IC50 [8] | Selectivity Index [9] | IC50 [10] | Compound | MNTD [4] | IC50 [6] | IC50 [7] | further results
67.4% | 18.5 ×10⁻⁶ cm/s | 8.62 µM | 0.77 | 6.64 µM | C#CCN(C)C1=CC(=O)c2ccccc2C1=O | 8 µM | 36.1 µM | 22 µM | –
18.4% | 29.4 ×10⁻⁶ cm/s | 0.05 µM | 155 | 7.76 µM | C#CCNC1=C(Cl)C(=O)c2ccccc2C1=O | 4 µM | 10.4 µM | 4.6 µM | inhibition (INH) [11]: Active; Activity [12]: Active; inhibition (INH) [13]: Active; Activity [14]: Active
24% | 20.8 ×10⁻⁶ cm/s | 0.27 µM | 36 | 9.81 µM | C#CCNC1=CC(=O)c2ccccc2C1=O | 4 µM | 34.6 µM | > 64 µM | inhibition (INH) [30]: Active; inhibition (INH) [31]: Active; inhibition (INH) [32]: Active
40.5% | 14 ×10⁻⁶ cm/s | 0.14 µM | 71 | 10 µM | C#CCN(C)C1=C(Cl)C(=O)c2ccccc2C1=O | 2 µM | 7.3 µM | 3.3 µM | Activity [12]: Active; Activity [18]: 5%; Activity [14]: Active

Source: ChEMBL document CHEMBL4819016, “2-Propargylamino-naphthoquinone derivatives as multipotent agents for the treatment of Alzheimer's disease” (Eur J Med Chem, 2021)
